# Data reported in publication PMC8121805, “Discovery of first-in-class inhibitors of ASH1L histone methyltransferase with anti-leukemic activity” (Nature Communications, 2021).
# Several values for one entry are separate records, joined by “and”; a condition that tells them apart may be missing. Equal entries are not always repeated.
# Tests used:
# Assay type in all cases: cell-based, human
# KOPN8 cells [1] = assay: Annexin V apoptosis assay (flow cytometry); conditions: 7 days
# K562 cells = assay: MTT cell viability assay
# Method: (§1) Human leukemia cells K562, MV4;11 and RS4;11 (purchased from ATCC) and KOPN8, MOLM13 (purchased from DSMZ) were cultured in RPMI 1640 (Invitrogen) supplemented with 10% heat inactivated (h.i.) FBS and 1% penicillin/streptomycin (Invitrogen). SET2 cells (purchased from DSMZ) were cultured in RPMI 1640 supplemented with 20% h.i. FBS and 1% penicillin/streptomycin. Cells were plated at 1 × 10^5 to 2 × 10^5 cells/mL depending on cell line and treated with 0.25% DMSO or varying concentrations of compounds and incubated at 37 °C, 5% CO2 incubator for 7 days. Media was changed on day 3 or 4 and compounds were resupplied. […] Cell suspensions (100 μL) were transferred to the 96-well plates for each sample in quadruplicate at the time of media change. At day 7, 10 µL of MTT reagent (M6494, Molecular Probes™) was added to each well of the 96 well plate and incubated at 37 °C for 4 h. The formazan was then solubilized by adding 100 µL acidified 10% SDS solution and incubated at 37 °C overnight. Plates were read for absorbance at 570 nm using a PHERAstar BMG microplate reader. The experiments were performed two times in quadruplicates with calculation of mean and SD for each condition. Data were analyzed in Prism 8.0.0 to obtain GI50 values.
# (§2) Supplementary Figure 7. […] (a)
# (§3) Titration curves from the MTT cell viability assay performed after 4, 7, and 11 (or 10) days of
# (§4) Titration curves from the MTT cell viability assay performed after 7 days of treatment of KOPN8 ,
# (§5) MOLM13 and MV4;11 cell lines harboring MLL1 translocation (MLL1-r) or K562 cell line (non-
# (§6) Representative graphs are shown
# (§7) from two independent MTT experiments performed for each cell line. GI50 values correspond to […]
# KOPN8 cells [2] = assay: MTT cell viability assay; conditions: MTT, 7 days
# Method: as §1, §2, §3, §4, §5, §6, §7
# [3] = tested on: MLL fusion target genes in MV4;11 cells; assay: Real time qRT-PCR gene expression
# Method: (§8) 0.5 × 10^6 – 3 × 10^6 cells from each sample were collected at days 7 or 8 of treatment, centrifuged at 211 xg, and RNA was extracted according to the RNeasy Mini Kit protocol (74106, Qiagen). Extracted RNA was quantified using Nanodrop 2000 UV-Vis spectrophotometer and 0.5–1 µg of total RNA was reverse transcribed into cDNA using High-Capacity cDNA Reverse Transcription Kit (4368814, Applied Biosystems™) according to the manufacturer’s protocol. Real-time PCR was performed using the CFX96 Touch Real-Time PCR Detection System (Bio-Rad). TaqMan Gene Expression Master Mix and TaqMan Gene Expression Assays were purchased from Applied Biosystems. Relative quantification of each gene transcript was carried out using the comparative Ct method as described in the Applied Biosystems User Bulletin no. 2. TaqMan Gene Expression Assays were used: HPRT1: Hs02800695_m1, DLX2: Hs00269993_m1, FLT3: Hs00174690_m1, HOXA9: Hs00365956_m1, MEF2C: Hs00231149_m1, MEIS1: Hs00180020_m1, MNDA: Hs00935905_m1.
# (§9) Supplementary Figure 10. Effect of AS-nc on gene expression in MLL leukemia cells. (a, b) Quantitative RT-PCR performed in MOLM13 cells (a) or MV4;11 cells (b) after 7 days of treatment with AS-nc. Gene expression was normalized to HPRT1 and referenced to the DMSO treated cells. Representative data from two independent experiments, each performed in triplicates, […]
# [4] = tested on: MLL fusion target genes in MOLM13 cells; assay: Real time qRT-PCR gene expression; set-up: key to MEIS1 expression / FLT3 expression / HOXA9 expression / MNDA expression / MEF2C expression / DLX2 expression: fold change vs DMSO-treated cells, normalized to HPRT1 (comparative Ct); conditions: for DLX2 expression / FLT3 expression / HOXA9 expression / MEF2C expression / MEIS1 expression / MNDA expression: MOLM13, 7 days, normalized to HPRT1, referenced to DMSO
# Method: as §8, §9
# [5] = MTT, 7 days, log[compound] -4.92082
# [6] = MTT, 7 days, log[compound] -5.22185
# [7] = MTT, 7 days, log[compound] -5.52288
# [8] = MTT, 7 days, log[compound] -5.82391
# [9] = MTT, 7 days, log[compound] -6.12494
# [10] = MTT, 7 days, log[compound] -6.42597
# [11] = MV4;11, 7 days, 3 uM, normalized to HPRT1, referenced to DMSO
compound,measurement,setting,value
CN1CC(C(=O)NCc2ccc3c(-c4cccc(C(N)=S)c4)cn(C4CCN(S(=O)(=O)C(F)(F)F)CC4)c3c2)C1 [AS-99],KOPN8 % Annexin V/PI+ cells,KOPN8 cells [1]; 1 uM,4.46% and 5.06% and 4.65%
same,KOPN8 % Annexin V/PI+ cells,KOPN8 cells [1]; 2 uM,6.92% and 8.33% and 6.49%
same,KOPN8 % Annexin V/PI+ cells,KOPN8 cells [1]; 3 uM,6.23% and 7.5% and 8.51%
same,KOPN8 % Annexin V/PI+ cells,KOPN8 cells [1]; 4 uM,31.1% and 33%
same,GI50,"K562 cells; Homo sapiens, 168 h, K562 (non MLL1-r), MTT, 7 days",~10 µM
same,% activity K562,K562 cells; [5],34.51% and 35.23% and 31.55% and 35.55%
same,% activity K562,K562 cells; [6],83.83% and 82.23% and 83.51% and 86.83%
same,% activity K562,K562 cells; [7],95.95% and 103.51% and 103.55% and 93.67%
same,% activity K562,K562 cells; [8],96.63% and 103.59% and 103.23% and 96.55%
same,% activity K562,K562 cells; [9],84.15% and 92.83% and 97.87% and 96.55%
same,% activity K562,K562 cells; [10],86.31% and 85.15% and 89.55% and 92.55%
same,% activity K562,"K562 cells; MTT, 7 days, log[compound] -6.727",85.67% and 82.35% and 87.23% and 83.91%
same,effect on growth/proliferation of K562 cells,K562 cells; leukemia cells without MLL1 translocations,no or limited effects at 10 µM or higher concentrations
same,GI50,"KOPN8 cells [2]; Homo sapiens, KOPN-8, 168 h, KOPN8 (MLL1-r)",2900 ± 300 nM
same,% activity KOPN-8,KOPN8 cells [2]; log[compound] -4.92082,5.251% and 4.98% (2×) and 5.115%
same,% activity KOPN-8,KOPN8 cells [2]; log[compound] -5.22185,1.863% and 1.728% and 2.134%
same,% activity KOPN-8,KOPN8 cells [2]; log[compound] -5.52288,50.2371% and 54.1667% and 51.0501% and 53.0827%
same,% activity KOPN-8,KOPN8 cells [2]; log[compound] -5.82391,80.5894% and 71.1043% and 76.5244% and 75.7114%
same,% activity KOPN-8,KOPN8 cells [2]; log[compound] -6.12494,90.8875% and 88.855% and 90.6165% and 83.977%
same,% activity KOPN-8,KOPN8 cells [2]; log[compound] -6.42597,97.1206% and 99.8306% and 104.844% and 96.4431%
same,% activity KOPN-8,KOPN8 cells [2]; log[compound] -6.727,96.0366% and 101.457% and 104.844% and 97.6626%
same,DLX2 expression,[3]; [11],0.19 and 0.27 and 0.29
same,FLT3 expression,[3]; [11],0.7 and 0.8 and 0.73
same,HOXA9 expression,[3]; [11],0.46 and 0.64 and 0.75
same,MEF2C expression,[3]; [11],0.64 and 0.74 and 0.63
same,MEIS1 expression,[3]; [11],0.76 and 0.82 and 1.02
same,MNDA expression,[3]; [11],1.48 and 1.84 and 1.74
same,DLX2 expression,[4]; 2 uM,0.56 and 0.75 and 0.61
same,FLT3 expression,[4]; 2 uM,0.69 and 0.97 and 0.78
same,HOXA9 expression,[4]; 2 uM,0.72 and 0.91 and 0.9
same,MEF2C expression,[4]; 2 uM,0.67 and 0.89 and 0.83
same,MEIS1 expression,[4]; 2 uM,0.79 and 0.98 and 0.9
same,MNDA expression,[4]; 2 uM,1.83 and 1.84 and 1.74
same,DLX2 expression,[4]; 4 uM,0.44 and 0.5 and 0.58
same,FLT3 expression,[4]; 4 uM,0.67 and 0.76 and 0.61
same,HOXA9 expression,[4]; 4 uM,0.76 and 0.94 and 0.79
same,MEF2C expression,[4]; 4 uM,0.59 and 0.77 and 0.68
same,MEIS1 expression,[4]; 4 uM,0.89 and 0.77 and 0.75
same,MNDA expression,[4]; 4 uM,2.92 and 2.39 and 3.74
same,DLX2 expression,[4]; 6 uM,0.53 and 0.54 and 0.7
same,FLT3 expression,[4]; 6 uM,0.53 and 0.65 and 0.5
same,HOXA9 expression,[4]; 6 uM,0.69 and 0.9 and 0.7
same,MEF2C expression,[4]; 6 uM,0.48 and 0.65 and 0.64
same,MEIS1 expression,[4]; 6 uM,0.71 and 0.74 and 0.69
same,MNDA expression,[4]; 6 uM,3.99 and 3.93 and 2.86
same,expression level of the MNDA differentiation marker,[4]; MOLM13 and MV4;11,substantial increase
same,"expression of MLL fusion target genes (MEF2C, DLX2, FLT3, HOXA9)",[4]; MOLM13 and MV4;11,dose-dependent downregulation
CN1CC(C(=O)NCc2ccc3c(-c4cccc(C(N)=O)c4)cn(C4CCN(S(=O)(=O)C(F)(F)F)CC4)c3c2)C1 [AS-nc],KOPN8 % Annexin V(+) cells,KOPN8 cells [1]; 2 uM,6.32% and 5.25% and 5.31%
same,KOPN8 % Annexin V(+) cells,KOPN8 cells [1]; 4 uM,7.36% and 6.41% and 6.28%
same,KOPN8 % Annexin V(+) cells,KOPN8 cells [1]; 6 uM,7.96% and 6.03% and 6.25%
same,% activity K562,K562 cells; [5],87.2356% and 88.3293% and 79.0617% and 81.4793%
same,% activity K562,K562 cells; [6],96.906% and 94.8338% and 87.581% and 99.8993%
same,% activity K562,K562 cells; [7],91.5527% and 87.8688% and 87.2356% and 88.1566%
same,% activity K562,K562 cells; [8],106.979% and 101.569% and 98.9783% and 92.4737%
same,% activity K562,K562 cells; [9],95.2367% and 84.818% and 86.8902% and 88.0414%
same,% activity K562,K562 cells; [10],88.8473% and 100.475% and 98.4026% and 99.0934%
same,% activity KOPN-8,KOPN8 cells [2]; log[compound] -4.92082,88.0603% and 89.0658% and 78.5086% and 67.1135%
same,% activity KOPN-8,KOPN8 cells [2]; log[compound] -5.22185,96.2715% and 87.8928% and 88.5631% and 98.2824%
same,% activity KOPN-8,KOPN8 cells [2]; log[compound] -5.52288,93.4227% and 96.9418% and 95.7687% and 88.2279%
same,% activity KOPN-8,KOPN8 cells [2]; log[compound] -5.82391,91.9145% and 89.5685% and 90.7415% and 92.2497%
same,% activity KOPN-8,KOPN8 cells [2]; log[compound] -6.12494,92.2497% and 92.4173% and 96.2715% and 88.7306%
same,% activity KOPN-8,KOPN8 cells [2]; log[compound] -6.42597,96.439% and 101.969% and 107.164% and 94.4282%
same,"MV4;11 fold change vs DMSO, FLT3",[3]; AS-nc 3 uM,1.06 and 0.99 and 0.95
same,"MV4;11 fold change vs DMSO, HOXA9",[3]; AS-nc 3 uM,1.01 and 0.9
same,"MV4;11 fold change vs DMSO, MEF2C",[3]; AS-nc 3 uM,1.19 and 1.02 and 0.92
same,"MV4;11 fold change vs DMSO, MESIS1",[3]; AS-nc 3 uM,0.86 and 1.07 and 0.96
same,"MOLM13 fold change vs DMSO, DLX2",[4]; AS-nc 2 uM,1.06 and 1.01 and 0.76
same,"MOLM13 fold change vs DMSO, FLT3",[4]; AS-nc 2 uM,1.07 and 0.95 and 0.92
same,"MOLM13 fold change vs DMSO, HOXA9",[4]; AS-nc 2 uM,1.01 and 1.09 and 0.84
same,"MOLM13 fold change vs DMSO, MEF2C",[4]; AS-nc 2 uM,0.98 and 1.02 and 0.94
same,"MOLM13 fold change vs DMSO, MEIS1",[4]; AS-nc 2 uM,1.03 and 1.08 and 0.97
same,"MOLM13 fold change vs DMSO, MNDA",[4]; AS-nc 2 uM,1.45 and 1.05 and 1.01
same,"MOLM13 fold change vs DMSO, DLX2",[4]; AS-nc 4 uM,1.02 and 0.96 and 0.71
same,"MOLM13 fold change vs DMSO, FLT3",[4]; AS-nc 4 uM,1.03 and 0.86 and 0.96
same,"MOLM13 fold change vs DMSO, HOXA9",[4]; AS-nc 4 uM,0.95 and 1 and 1.06
same,"MOLM13 fold change vs DMSO, MEF2C",[4]; AS-nc 4 uM,1 and 0.95 and 1.01
same,"MOLM13 fold change vs DMSO, MEIS1",[4]; AS-nc 4 uM,0.97 and 1.1 and 0.95
same,"MOLM13 fold change vs DMSO, MNDA",[4]; AS-nc 4 uM,1.29 and 1.57 and 1.44
same,"MOLM13 fold change vs DMSO, DLX2",[4]; AS-nc 6 uM,1.04 and 1 and 0.77
same,"MOLM13 fold change vs DMSO, FLT3",[4]; AS-nc 6 uM,1.07 and 0.95 and 0.88
same,"MOLM13 fold change vs DMSO, HOXA9",[4]; AS-nc 6 uM,1.03 and 0.88 and 0.9
same,"MOLM13 fold change vs DMSO, MEF2C",[4]; AS-nc 6 uM,1.03 and 0.94 and 0.96
same,"MOLM13 fold change vs DMSO, MEIS1",[4]; AS-nc 6 uM,0.86 and 1.09 and 0.93
same,"MOLM13 fold change vs DMSO, MNDA",[4]; AS-nc 6 uM,1.31 and 1.06 and 0.93
same,"expression of MLL fusion target genes (MEF2C, DLX2, FLT3, HOXA9)",[4]; MOLM13 and MV4;11,no changes
